Key:
Type in all cases: biochemical
Details in all cases: for inhibition at 0.1 µM: compound at 100 nM, [ATP] = Km
[1] = target: T1, EGFR (ErbB1) (Homo sapiens, UniProt P00533); test: Z'-LYTE kinase inhibition assay (Invitrogen), EGFR
T1 construct: purchased Invitrogen
Procedure: (§1) Inhibitory activities of compounds against BTK, EGFR and EGFR mutants (EGFR L858R/T790M) were measured by Invitrogen using Z′-LYTE® Method as briefly described in the following.
(§2) Test Compounds are screened in 1% DMSO (final) in the well. For 10 point titrations, 3-fold serial dilutions are conducted from the starting concentration. All ATP Solutions are diluted to a 4× working concentration in Kinase Buffer (50 mM HEPES pH 7.5, 0.01% BRIJ-35, 10 mM MgCl2, 1 mM EGTA). Peptide/Kinase Mixtures are diluted to a 2× working concentration in the appropriate Kinase Buffers as described below.
(i) Peptide/Kinase Mixtures for measurement of EGFR (ErbB1):
The 2×EGFR (ErbB1)/Tyr 04 mixture is prepared in 50 mM HEPES pH 7.5, 0.01% BRIJ-35, 10 mM MgCl2, 4 mM MnCl2, 1 mM EGTA, 2 mMDTT. The final 10 μL Kinase Reaction consists of 1.1-5.25 ng EGFR (ErbB1) and 2 μM Tyr 04 in 50 mM HEPES pH 7.5, 0.01% BRIJ-35, 10 mM MgCl2, 2 mM MnCl2, 1 mM EGTA, 1 mM DTT. After the 1 hour Kinase Reaction incubation, 5 μL of a 1:64 dilution of DevelopmentReagent B is added.
(§3) Reaction starts by 30-second shaking of mixture consisting of 2.5 μL 4× test compound, 5 μL 2× kinase reaction mixture and 2.5 μL 4×ATP Solution on Bar-coded Corning, low volume NBS, black 384-well plate (Corning Cat. #3676). Then the mixture is incubated for 60-minute at room temperature for the kinase reaction, followed by addition of 5 μL of a 1:1024 dilution of development reagent A and 30-second plate shake. The mixture is then incubated for another 60-minute at room temperature for development reaction. Finally fluorescence is read by plate reader. […] The scale utilized in Tables 2 and 3 is as follows: ++ more than 50% inhibition and + less than 50% inhibition.
(§4) To determine IC50 of a compound against EGFR or EGFR mutants, a series of concentrations of the compound were tested for the inhibition. IC50 was calculated by plotting the concentration of compound vs the percentage of inhibition in treated wells using GraphPad Prism 5. […] The scale utilized in Table 4 is as follows: ++ less than 100 nM and + greater than 100 nM.

[2] = target: T2, EGFR (ErbB1) T790M L858R (Homo sapiens, UniProt P00533, L858R/T790M); test: Z'-LYTE kinase inhibition assay (Invitrogen), EGFR L858R/T790M
T2 construct: purchased Invitrogen
Procedure: as §1, §2
(iv) Peptide/Kinase Mixtures for measurement of EGFR (ErbB1) T790M L858R:
The 2×EGFR (ErbB1) T790M L858R/Tyr 04 mixture is prepared in 50 mM HEPES pH 6.5, 0.01% BRIJ-35, 10 mM MgCl2, 1 mM EGTA, 0.02% NaN3. The final 10 μL Kinase Reaction consists of 0.38-4.22 ng EGFR (ErbB1) T790M L858R and 2 μM Tyr 04 in 50 mM HEPES pH 7.0, 0.01% BRIJ-35, 10 mM MgCl2, 1 mM EGTA, 0.01% NaN3. After the 1 hour Kinase Reaction incubation, 5 μL of a 1:64 dilution of Development Reagent B is added.
as §3, §4

[3] = target: T3, BTK (Homo sapiens, UniProt Q06187); test: Z'-LYTE kinase inhibition assay (Invitrogen), BTK
T3 construct: purchased Invitrogen
Procedure: as §1, §2
(v) Peptide/Kinase Mixtures for measurement of BTK:
The 2×BTK/Tyr 01 mixture is prepared in 50 mM HEPES pH 7.5, 0.01% BRIJ-35, 10 mM MgCl2, 1 mM EGTA. The final 10 μL Kinase Reaction consists of 1.04-10.4 ng BTK and 2 μM Tyr 01 in 50 mM HEPES pH 7.5, 0.01% BRIJ-35, 10 mM MgCl2, 1 mM EGTA. After the 1 hour Kinase Reaction incubation, 5 μL of a 1:256 dilution of Development Reagent B is added.
as §3, §4

T3 sequence (Q06187 whole entry): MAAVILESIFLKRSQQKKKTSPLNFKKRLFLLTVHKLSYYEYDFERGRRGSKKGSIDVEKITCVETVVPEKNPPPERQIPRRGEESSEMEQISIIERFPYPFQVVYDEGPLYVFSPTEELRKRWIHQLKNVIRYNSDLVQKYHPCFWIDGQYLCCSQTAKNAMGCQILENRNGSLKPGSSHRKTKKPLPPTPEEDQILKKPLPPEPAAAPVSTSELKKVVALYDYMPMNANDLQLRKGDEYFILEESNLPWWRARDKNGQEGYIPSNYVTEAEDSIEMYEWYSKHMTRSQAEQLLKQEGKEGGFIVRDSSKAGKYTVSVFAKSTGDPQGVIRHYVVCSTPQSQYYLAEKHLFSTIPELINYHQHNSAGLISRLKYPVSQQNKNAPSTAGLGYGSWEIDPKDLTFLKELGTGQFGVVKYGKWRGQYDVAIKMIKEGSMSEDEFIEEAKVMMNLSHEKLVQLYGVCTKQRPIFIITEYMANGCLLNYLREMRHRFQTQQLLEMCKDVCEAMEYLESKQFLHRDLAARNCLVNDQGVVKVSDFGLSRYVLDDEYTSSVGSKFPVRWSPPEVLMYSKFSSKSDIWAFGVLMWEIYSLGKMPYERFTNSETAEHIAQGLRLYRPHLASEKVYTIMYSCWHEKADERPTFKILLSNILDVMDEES
T2 sequence (P00533 25-1210 T790M/L858R): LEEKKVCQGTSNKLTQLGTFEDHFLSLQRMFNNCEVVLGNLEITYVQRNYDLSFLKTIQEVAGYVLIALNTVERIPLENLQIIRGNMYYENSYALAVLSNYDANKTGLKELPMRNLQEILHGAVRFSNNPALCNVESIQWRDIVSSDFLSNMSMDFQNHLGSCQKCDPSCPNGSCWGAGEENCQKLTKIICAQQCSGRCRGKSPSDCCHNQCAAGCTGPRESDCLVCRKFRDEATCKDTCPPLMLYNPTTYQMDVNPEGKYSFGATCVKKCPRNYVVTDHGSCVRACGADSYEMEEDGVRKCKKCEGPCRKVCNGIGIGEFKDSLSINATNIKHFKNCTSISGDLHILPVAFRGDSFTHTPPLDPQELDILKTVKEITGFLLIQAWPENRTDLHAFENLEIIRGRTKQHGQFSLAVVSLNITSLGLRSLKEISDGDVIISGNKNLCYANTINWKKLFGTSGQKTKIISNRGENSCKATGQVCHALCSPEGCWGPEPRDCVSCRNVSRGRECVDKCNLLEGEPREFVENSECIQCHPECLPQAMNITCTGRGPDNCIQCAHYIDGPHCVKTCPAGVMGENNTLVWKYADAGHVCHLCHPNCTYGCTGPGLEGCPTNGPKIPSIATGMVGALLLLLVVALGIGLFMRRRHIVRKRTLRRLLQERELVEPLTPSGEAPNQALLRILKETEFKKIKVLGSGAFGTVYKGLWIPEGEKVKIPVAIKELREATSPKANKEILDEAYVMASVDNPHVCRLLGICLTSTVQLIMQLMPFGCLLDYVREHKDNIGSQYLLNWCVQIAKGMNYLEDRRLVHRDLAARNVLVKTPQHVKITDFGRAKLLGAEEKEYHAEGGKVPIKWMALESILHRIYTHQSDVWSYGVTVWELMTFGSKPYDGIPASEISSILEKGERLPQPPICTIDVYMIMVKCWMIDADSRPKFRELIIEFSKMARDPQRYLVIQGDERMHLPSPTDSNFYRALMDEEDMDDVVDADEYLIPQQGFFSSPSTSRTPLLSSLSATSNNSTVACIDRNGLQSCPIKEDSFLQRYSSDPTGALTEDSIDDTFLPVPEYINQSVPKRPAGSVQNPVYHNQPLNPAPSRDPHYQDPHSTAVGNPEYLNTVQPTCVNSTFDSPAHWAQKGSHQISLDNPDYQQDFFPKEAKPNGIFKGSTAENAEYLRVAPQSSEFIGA
T1 sequence (P00533 25-1210): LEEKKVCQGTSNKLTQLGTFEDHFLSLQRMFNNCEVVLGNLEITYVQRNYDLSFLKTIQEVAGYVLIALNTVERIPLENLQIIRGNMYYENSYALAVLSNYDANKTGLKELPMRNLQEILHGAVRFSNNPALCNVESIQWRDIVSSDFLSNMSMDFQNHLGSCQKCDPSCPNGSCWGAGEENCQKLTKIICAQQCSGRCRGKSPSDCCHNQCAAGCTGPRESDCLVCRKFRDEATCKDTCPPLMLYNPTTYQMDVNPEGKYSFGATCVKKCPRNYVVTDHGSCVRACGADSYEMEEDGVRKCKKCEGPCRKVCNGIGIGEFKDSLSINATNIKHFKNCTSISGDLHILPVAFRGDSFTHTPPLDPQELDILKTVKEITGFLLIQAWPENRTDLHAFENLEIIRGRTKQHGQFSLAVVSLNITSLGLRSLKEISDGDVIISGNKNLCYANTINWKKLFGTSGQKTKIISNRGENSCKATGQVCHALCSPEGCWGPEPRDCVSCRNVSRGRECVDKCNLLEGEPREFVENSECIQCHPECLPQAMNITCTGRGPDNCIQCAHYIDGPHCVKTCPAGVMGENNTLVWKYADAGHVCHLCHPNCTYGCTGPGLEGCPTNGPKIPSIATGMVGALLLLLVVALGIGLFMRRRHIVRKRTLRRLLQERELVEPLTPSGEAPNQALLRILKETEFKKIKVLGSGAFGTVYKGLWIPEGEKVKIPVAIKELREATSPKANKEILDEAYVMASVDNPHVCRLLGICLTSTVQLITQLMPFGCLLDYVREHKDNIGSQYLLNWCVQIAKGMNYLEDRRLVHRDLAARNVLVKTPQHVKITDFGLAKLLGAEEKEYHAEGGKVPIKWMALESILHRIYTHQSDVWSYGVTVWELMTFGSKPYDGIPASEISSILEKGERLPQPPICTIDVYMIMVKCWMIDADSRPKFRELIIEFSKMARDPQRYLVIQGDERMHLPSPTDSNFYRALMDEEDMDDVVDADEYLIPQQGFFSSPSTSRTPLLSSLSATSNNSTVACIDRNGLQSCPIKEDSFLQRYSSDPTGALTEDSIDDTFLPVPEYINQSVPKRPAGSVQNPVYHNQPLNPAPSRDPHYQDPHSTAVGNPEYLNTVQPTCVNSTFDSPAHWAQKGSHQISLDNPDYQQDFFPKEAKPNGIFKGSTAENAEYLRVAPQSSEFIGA

Row | IC50 [1] | IC50 [2] | IC50 [3] | inhibition at 0.1 µM [3] | inhibition at 0.1 µM [1] | inhibition at 0.1 µM [2] | Compound
1 | > 100 nM | > 100 nM | < 100 nM | > 50% |  |  | C=CC(=O)Nc1cccc(-n2cnc3cnc(Nc4ccc(N5CCN(C)CC5)cc4)nc32)c1 [Example A002, N-(3-(2-((4-(4-methylpiperazin-1-yl)phenyl)amino)-9H-purin-9-yl)phenyl)acrylamide]
2 |  |  |  | < 50% |  |  | C=CC(=O)Nc1cccc(-n2cnc3cnc(Nc4ccc(N5CCN(CCO)CC5)cc4F)nc32)c1 [Example A003, N-(3-(2-((2-fluoro-4-(4-(2-hydroxyethyl)piperazin-1-yl)phenyl)amino)-9H-purin-9-yl)phenyl)acrylamide]
3 |  |  |  | > 50% |  |  | C=CC(=O)N1CCC(n2cnc3cnc(Nc4ccc(N5CCN(C)CC5)c(F)c4)nc32)C1 (stereo not drawn) [Example A004, 1-(3-(2-((3-Fluoro-4-(4-methylpiperazin-1-yl)phenyl)amino)-9H-purin-9-yl)pyrrolidin-1-yl)prop-2-en-1-one]
4 |  |  |  | > 50% |  |  | C=CC(=O)N1CCC(n2cnc3cnc(Nc4ccc(N5CCN(C)CC5)cc4)nc32)C1 (stereo not drawn) [Example A005, 1-(3-(2-((4-(4-methylpiperazin-1-yl)phenyl)amino)-9H-purin-9-yl)pyrrolidin-1-yl)prop-2-en-1-one]
5 |  |  |  | > 50% |  |  | C=CC(=O)N1CCC(n2cnc3cnc(Nc4ccc(N5CCN(CCO)CC5)cc4)nc32)C1 (stereo not drawn) [Example A006, 1-(3-(2-((4-(4-(2-hydroxyethyl)piperazin-1-yl)phenyl)amino)-9H-purin-9-yl)pyrrolidin-1-yl)prop-2-en-1-one]
6 |  |  |  | > 50% |  |  | C=CC(=O)N1CCC(n2cnc3cnc(Nc4ccc(N5CCN(CCO)CC5)c(F)c4)nc32)C1 (stereo not drawn) [Example A007, 1-(3-(2-((3-fluoro-4-(4-(2-hydroxyethyl)piperazin-1-yl)phenyl)amino)-9H-purin-9-yl)pyrrolidin-1-yl)prop-2-en-1-one]
7 |  |  |  | < 50% |  |  | C=CC(=O)N1CCC(n2cnc3cnc(Nc4ccc(N5CCN(CCO)CC5)cc4F)nc32)C1 (stereo not drawn) [Example A008, 1-(3-(2-((2-fluoro-4-(4-(2-hydroxyethyl)piperazin-1-yl)phenyl)amino)-9H-purin-9-yl)pyrrolidin-1-yl)prop-2-en-1-one]
8 | > 100 nM | > 100 nM | < 100 nM | > 50% |  |  | C=CC(=O)N1CCCC(n2cnc3cnc(Nc4ccc(N5CCN(C)CC5)c(F)c4)nc32)C1 (stereo not drawn) [Example A009, 1-(3-(2-((3-fluoro-4-(4-methylpiperazin-1-yl)phenyl)amino)-9H-purin-9-yl)piperidin-1 yl)prop-2-en-1-one]
9 | > 100 nM | > 100 nM | < 100 nM | > 50% |  |  | C=CC(=O)Nc1cccc(-n2cnc3cnc(Nc4ccc(N5CCN(C)CC5)c(F)c4)nc32)c1 [Example A010, N-(3-(2-((3-fluoro-4-(4-methylpiperazin-1-yl)phenyl)amino)-9H-purin-9-yl)phenyl)acrylamide]
10 |  |  |  | < 50% | < 50% | < 50% | C=CC(=O)N1CCC(n2cnc3cnc(Nc4ccc(N5CCN(C)CC5)c(F)c4F)nc32)C1 (stereo not drawn) [Example A011, 1-(3-(2-((2,3-difluoro-4-(4-methylpiperazin-1-yl)phenyl)amino)-9H-purin-9-yl)pyrrolidin-1-yl)prop-2-en-1-one]
11 |  |  |  | > 50% | < 50% | < 50% | C=CC(=O)N1CCCC(n2cnc3cnc(Nc4ccc(N5CCN(CCO)CC5)c(F)c4)nc32)C1 (stereo not drawn) [Example A012]
12 |  |  |  | > 50% | < 50% | < 50% | C=CC(=O)N1CCCC(n2cnc3cnc(Nc4ccc(N5CCN(CCO)CC5)cc4)nc32)C1 (stereo not drawn) [Example A013, 1-(3-(2-((4-(4-(2-hydroxyethyl)piperazin-1-yl)phenyl)amino)-9H-purin-9-yl)piperidin-1-yl)prop-2-en-1-one]
13 |  |  |  | < 50% | < 50% | < 50% | C=CC(=O)Nc1cccc(-n2cnc3cnc(Nc4ccc(N5CCN(CCO)CC5)c(F)c4F)nc32)c1 [Example A014, N-(3-(2-((2,3-difluoro-4-(4-(2-hydroxyethyl)piperazin-1-yl)phenyl)amino)-9H-purin-9-yl)phenyl)acrylamide]
14 |  |  |  | > 50% | < 50% | < 50% | C=CC(=O)Nc1cccc(-n2cnc3cnc(Nc4ccc(N5CCN(CCO)CC5)cc4)nc32)c1 [Example A015, N-(3-(2-((4-(4-(2-hydroxyethyl)piperazin-1-yl)phenyl)amino)-9H-purin-9-yl)phenyl)acrylamide]
15 |  |  |  | < 50% | < 50% | < 50% | C=CC(=O)N1CCCC(n2cnc3cnc(Nc4ccc(N5CCN(CCO)CC5)cc4F)nc32)C1 (stereo not drawn) [Example A016, 1-(3-(2-((2-fluoro-4-(4-(2-hydroxyethyl)piperazin-1-yl)phenyl)amino)-9H-purin-9-yl)piperidin-1-yl)prop-2-en-1-one]
16 |  |  |  | < 50% | < 50% | < 50% | C=CC(=O)N1CCC(n2cnc3cnc(Nc4ccc(N5CCN(C)CC5)cc4F)nc32)C1 (stereo not drawn) [Example A017, 1-(3-(2-((2-fluoro-4-(4-methylpiperazin-1-yl)phenyl)amino)-9H-purin-9-yl)pyrrolidin-1-yl)prop-2-en-1-one]
17 |  |  |  | < 50% | < 50% | < 50% | C=CC(=O)N1CCCC(n2cnc3cnc(Nc4ccc(N5CCN(C)CC5)cc4F)nc32)C1 (stereo not drawn) [Example A018, 1-(3-(2-((2-fluoro-4-(4-methylpiperazin-1-yl)phenyl)amino)-9H-purin-9-yl)piperidin-1-yl)prop-2-en-1-one]
18 |  |  |  | < 50% | < 50% | < 50% | C=CC(=O)Nc1cccc(-n2cnc3cnc(Nc4ccc(N5CCN(C)CC5)c(F)c4F)nc32)c1 [Example A019, N-(3-(2-((2,3-difluoro-4-(4-methylpiperazin-1-yl)phenyl)amino)-9H-purin-9-yl)phenyl)acrylamide]
19 |  |  |  | > 50% | < 50% | > 50% | C=CC(=O)Nc1cccc(-n2cnc3cnc(Nc4ccc(N5CCN(CCO)CC5)c(F)c4)nc32)c1 [Example A020]
20 |  |  |  | < 50% | < 50% | < 50% | C=CC(=O)Nc1cccc(-n2cnc3cnc(Nc4ccc(N5CCN(C)CC5)cc4F)nc32)c1 [Example A021, N-(3-(2-((2-fluoro-4-(4-methylpiperazin-1-yl)phenyl)amino)-9H-purin-9-yl)phenyl)acrylamide]
21 |  |  |  | < 50% | < 50% | < 50% | C=CC(=O)N1CCC(n2cnc3cnc(Nc4ccc(N5CCN(CCO)CC5)c(F)c4F)nc32)C1 (stereo not drawn) [Example A022]
22 |  |  |  | < 50% | < 50% | < 50% | C=CC(=O)N1CCCC(n2cnc3cnc(Nc4ccc(N5CCN(C)CC5)c(F)c4F)nc32)C1 (stereo not drawn) [Example A023, 1-(3-(2-((2,3-difluoro-4-(4-methylpiperazin-1-yl)phenyl)amino)-9H-purin-9-yl)piperidin-1-yl)prop-2-en-1-one]

— patent US10947201B2, “Certain chemical entities, compositions, and methods” (NEUPHARMA, INC., priority 2015, dated 2021)
